From patent US12329741B2, “HBV inhibitor and its use” (priority 2019, dated 2025) come the findings set out here.

One data set relates to hepatitis B virus (HBV). Description: Anti-hepatitis B virus activity: HBV DNA in supernatant of HepG2.2.15 cells by qPCR. The class given is cell-based. Conditions: 192 h, supernatant collected on day 8. From the text:
(§1) In this experiment, real-time fluorescent quantitative PCR (qPCR) method was used to detect the content of HBV DNA in the supernatant of HepG2.2.15 cells to determine the anti-hepatitis B virus activity of the compound in HepG2.2.15 cells, and to detect cell viability impact of the test compound against HepG2.2.15 by Cell-titer Blue method. In the experiment, entecavir (ETV) was used as a reference compound to monitor the quality of the experiment.
On day 1, the cells were planted into a 96-well plate, the compound was added to treat the cells on day 2, a new culture medium containing the compound was replaced on day 5, and the supernatant was collected on day 8 to extract DNA. Quantitative PCR was used to detect the content of HBV DNA. Both the test compound and the control compound were diluted in a series of 3 times with 8 concentration points, and 2 replicate wells were measured in parallel. The final concentration of DMSO in the culture medium is 0.5%.
The calculation formula of the inhibition percentage is as follows: % inh.=(1-HBV copy number of sample/HBV copy number of 0.5% DMSO control)×100
EC50 was analyzed by Graphpad Prism software (four parameter logistic equations).
A general note: In qPCR the cycle at which signal appears reflects the starting amount.

Data set [1] in a line: Cytotoxicity test (Cell-titer Blue method) in HepG2.2.15 cells. The class given is cell-based. Conditions: human, six days after treatment, highest concentration tested 100 μM, read-out: HepG2.2.15 cell viability CC50.
Text: as §1
The compound concentration, plate layout, and compound treatment process are consistent with the antiviral experiments. In six days after the cells were treated with the compound, the cell viability was measured with Cell-titer Blue.
Analyze the data and calculate relative cell viability: Use the following formula to calculate the percentage of cell viability: % Cell viability=(sample fluorescence reading-fluorescence reading of culture medium control)/(fluorescence reading of DMSO control-fluorescence reading of the culture medium control)×100.
Finally, GraphPad Prism software was used to calculate the CC50 value of the compound.

pEC50: −log10 of the molar value. Where only a bound is given, the exact number is not on record here.

`Cc1c(C(=O)C(=O)NC(C)C(F)(F)F)c(C)n(C)c1C(=O)Nc1ccc2occc2c1` (stereo in doubt) [Compound 56, 1,3,5-Trimethyl-2-amide-N-(benzofuran-5-yl)-4-(2-((S)-1,1,1-trifluoropropane-2-Amino)-oxalyl)-pyrrole]: the pEC50 (as a rule, the negative decadic logarithm of the EC50, by convention in mol/L) in the data set with hepatitis B virus (HBV) is at least 7.30. For the same compound, the CC50 – broadly, the concentration at which the toxic effect on the cells reaches its halfway point – at 6 days in data set [1] is above 100 µM.
The like results for `Cc1oc(C(=O)C(=O)NC(C)(C)C)cc1C(=O)Nc1ccc(F)c(Cl)c1` [Compound 1, 2-Methyl-3-amide-N-(3-chloro-4-fluorophenyl)-5-(2-tert-butylamino-oxalyl)-furan] were, in that order, 5.30 to 6.30 and above 100 µM.
For `C#CC(C)NC(=O)C(=O)c1cc(C(=O)Nc2ccc(F)c(Cl)c2)c(C)o1` (centres unmarked) [Compound 3, 2-Methyl-3-amide-N-(3-chloro-4-fluorophenyl)-5-(2-(1-methylpropynamido)-oxalyl)-furan], in that order: 5.30 to 6.30 and above 100 µM.
For `C#CC(C)(C)NC(=O)C(=O)c1cc(C(=O)Nc2ccc(F)c(Cl)c2)c(C)o1` [Compound 4, 2-Methyl-3-amide-N-(3-chloro-4-fluorophenyl)-5-(2-(1,1-dimethylpropynamido)-oxalyl)-furan], in that order: 5.30 to 6.30 and above 100 µM.
In the data set with hepatitis B virus (HBV), `CC#CCNC(=O)C(=O)c1cc(C(=O)Nc2ccc(F)c(Cl)c2)c(C)o1` [Compound 5, 2-Methyl-3-amide-N-(3-chloro-4-fluorophenyl)-5-(2-(2-alkynylbutylamino)-oxalyl)-furan] showed a pEC50 of 4.30 to 5.30. Further, the CC50 at 6 days in data set [1] was above 100 µM.
For `Cc1oc(C(=O)C(=O)NCC#CC(C)C)cc1C(=O)Nc1ccc(F)c(Cl)c1` [Compound 6, 2-Methyl-3-amide-N-(3-chloro-4-fluorophenyl)-5-(2-(4-methyl-2-ynylpentylamino)-oxalyl)-furan], in that order: 4.30 to 5.30 and 82 µM.
For `Cc1oc(C(=O)C(=O)NCC#Cc2ccccc2)cc1C(=O)Nc1ccc(F)c(Cl)c1` [Compound 7, 2-Methyl-3-amide-N-(3-chloro-4-fluorophenyl)-5-(2-(3-phenyl-2-eynylpropylamino)-oxalyl)-furan], in that order: below 4.30 and 29 µM.
`Cc1oc(C(=O)C(=O)Nc2ccccc2)cc1C(=O)Nc1ccc(F)c(Cl)c1` [Compound 9, 2-Methyl-3-amide-N-(3-chloro-4-fluorophenyl)-5-(2-anilino-oxalyl)-furan] had a pEC50 with hepatitis B virus (HBV) of 4.30 to 5.30. For the same compound, the CC50 at 6 days in data set [1] is above 100 µM.
`C=CCn1cc(CNC(=O)C(=O)c2cc(C(=O)Nc3ccc(F)c(Cl)c3)c(C)o2)nn1` [Compound 10, 2-Methyl-3-amide-N-(3-chloro-4-fluorophenyl)-5-(2-(1-allyl-1H[1,2,3]-triazole-4-methylamino)-oxalyl)-furan] showed a pEC50 in the data set with hepatitis B virus (HBV) below 4.30. Also, the CC50 at 6 days in data set [1] is above 100 µM.
The like results for `Cc1oc(C(=O)C(=O)NC2(C(F)(F)F)CC2)cc1C(=O)Nc1ccc(F)c(Cl)c1` [Compound 16, 2-Methyl-3-amide-N-(3-chloro-4-fluorophenyl)-5-(2-(1-trifluoromethyl-cyclopropylamino)-oxalyl)-furan] were, in that order, 6.30 to 7.30 and above 100 µM.
In the data set with hepatitis B virus (HBV), `Cc1oc(C(=O)C(=O)NCc2c[nH]nn2)cc1C(=O)Nc1ccc(F)c(Cl)c1` [Compound 17, 2-Methyl-3-amide-N-(3-chloro-4-fluorophenyl)-5-(2-(1H-1,2,3-triazole-4-methylamino)-oxalyl)-furan] showed a pEC50 of 4.30 to 5.30. For the same compound, the CC50 at 6 days in data set [1] is above 100 µM.
The like results for `Cc1oc(C(=O)C(=O)NC(C)(C)C)cc1C(=O)Nc1ccc(F)cc1` [Compound 18, 2-Methyl-3-amide-N-(4-fluorophenyl)-5-(2-tert-butylamino-oxalyl)-furan] were, in that order, 5.30 to 6.30 and above 100 µM.
The like results for `Cc1oc(C(=O)C(=O)NC(C)(C)C)cc1C(=O)Nc1ccc(F)c(F)c1` [Compound 19, 2-Methyl-3-amide-N-(3,4-difluorophenyl)-5-(2-tert-butylamino-oxalyl)-furan] were, in that order, 5.30 to 6.30 and above 100 µM.
